The molecules below were run against T1, human TLR7 (Homo sapiens, UniProt Q9NYK1) (assay: Human TLR7 agonist activity assay (HEK-Blue TLR7 SEAP reporter)). Conditions: HEK-Blue TLR7 cells, 18 h treatment, average where assay performed multiple times, read-out: hTLR7 Agonism EC50.
T1 construct: host or cells: HEK-Blue TLR7 cells (engineered human embryonic kidney cells)
T1 sequence (Q9NYK1 27-1049): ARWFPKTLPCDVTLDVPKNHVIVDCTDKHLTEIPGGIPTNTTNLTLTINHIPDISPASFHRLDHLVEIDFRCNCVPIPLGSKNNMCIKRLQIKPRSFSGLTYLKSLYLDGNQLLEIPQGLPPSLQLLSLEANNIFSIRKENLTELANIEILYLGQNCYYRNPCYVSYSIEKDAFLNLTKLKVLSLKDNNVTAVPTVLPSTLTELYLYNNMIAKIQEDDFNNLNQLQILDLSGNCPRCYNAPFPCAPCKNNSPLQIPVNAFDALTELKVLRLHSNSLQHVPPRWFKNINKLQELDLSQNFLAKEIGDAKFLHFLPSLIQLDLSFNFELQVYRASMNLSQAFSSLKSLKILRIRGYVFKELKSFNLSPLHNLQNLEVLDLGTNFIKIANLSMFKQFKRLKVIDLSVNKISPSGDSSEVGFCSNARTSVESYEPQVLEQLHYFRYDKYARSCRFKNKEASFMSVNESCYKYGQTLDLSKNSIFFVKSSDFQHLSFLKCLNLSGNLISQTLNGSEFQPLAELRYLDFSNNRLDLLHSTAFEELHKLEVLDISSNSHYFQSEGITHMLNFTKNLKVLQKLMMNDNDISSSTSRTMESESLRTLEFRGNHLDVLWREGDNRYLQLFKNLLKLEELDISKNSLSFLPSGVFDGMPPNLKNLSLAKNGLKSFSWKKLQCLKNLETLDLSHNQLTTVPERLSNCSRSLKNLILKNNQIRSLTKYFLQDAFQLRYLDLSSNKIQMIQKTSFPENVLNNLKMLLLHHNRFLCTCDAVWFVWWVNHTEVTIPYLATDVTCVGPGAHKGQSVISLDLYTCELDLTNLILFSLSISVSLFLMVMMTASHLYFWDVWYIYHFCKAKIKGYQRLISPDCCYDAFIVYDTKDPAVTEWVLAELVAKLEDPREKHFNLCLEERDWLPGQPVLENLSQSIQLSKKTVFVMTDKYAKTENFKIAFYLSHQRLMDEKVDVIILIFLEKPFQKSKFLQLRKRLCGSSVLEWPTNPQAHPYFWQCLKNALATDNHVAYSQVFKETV
Type: cell-based
Experimental: This procedure describes a method for assaying human TLR7 (hTLR7) agonist activity of the compounds disclosed in this specification.
HEK-Blue™ TLR7 cells were added to each well of a 384-well tissue-culture plate (15,000 cells per well) and incubated 16-18 h at 37° C., 5% CO2. Compounds (100 nl) were dispensed into wells containing the HEK-Blue™ TLR cells and the treated cells were incubated at 37° C., 5% CO2. After 18 h treatment ten microliters of freshly-prepared Quanti-Blue™ reagent (Invivogen) was added to each well, incubated for 30 min (37° C., 5% CO2) and SEAP levels measured using an Envision plate reader (OD=620 nm). The half maximal effective concentration values (EC50; compound concentration which induced a response halfway between the assay baseline and maximum) were calculated.
`CCC[C@@H](CCO)Nc1nc(N)nc2cnn(Cc3ccc(C4CN(C5CCOCC5)CCN4)cc3OC)c12` (stereo partly drawn) [Compound 203, (3S)-3-{[5-amino-1-({2-methoxy-4-[4-(oxan-4-yl)piperazin-2-yl]phenyl}methyl)-1H-pyrazolo[4,3-d]pyrimidin-7-yl]amino}hexan-1-ol] showed an EC50 of 35 nM. `CCC[C@@H](CCO)Nc1nc(N)nc2cnn(Cc3ncc(C4CCN(Cc5ncn(C)n5)CC4)cc3OC)c12` [Compound 204, (3S)-3-({5-amino-1-[(3-methoxy-5-{1-[(1-methyl-1H-1,2,4-triazol-3-yl)methyl]piperidin-4-yl}pyridin-2-yl)methyl]-1H-pyrazolo[4,3-d]pyrimidin-7-yl}amino)hexan-1-ol] showed an EC50 of 91.1 nM. Work on `CCC[C@@H](CCO)Nc1nc(N)nc2cnn(Cc3ncc(C4CCN(CCS(C)(=O)=O)CC4)cc3OC)c12` [Compound 206, (3S)-3-{[5-amino-1-({5-[1-(2-methanesulfonylethyl)piperidin-4-yl]-3-methoxypyridin-2-yl}methyl)-1H-pyrazolo[4,3-d]pyrimidin-7-yl]amino}hexan-1-ol] yielded an EC50 of 74.9 nM. Work on `CCC[C@@H](CCO)Nc1nc(N)nc2cnn(Cc3ncc(C4CCN(Cc5ncco5)CC4)cc3OC)c12` [Compound 207, (3S)-3-({5-amino-1-[(3-methoxy-5-{1-[(1,3-oxazol-2-yl)methyl]piperidin-4-yl}pyridin-2-yl)methyl]-1H-pyrazolo[4,3-d]pyrimidin-7-yl}amino)hexan-1-ol] yielded an EC50 of 25.1 nM. Molecule `CCC[C@@H](CCO)Nc1nc(N)nc2cnn(Cc3ncc(C4CCN(C(=O)CN5CCOCC5)CC4)cc3OC)c12` [Compound 208, 1-(4-{6-[(5-amino-7-{[(3S)-1-hydroxyhexan-3-yl]amino}-1H-pyrazolo[4,3-d]pyrimidin-1-yl)methyl]-5-methoxypyridin-3-yl}piperidin-1-yl)-2-(morpholin-4-yl)ethan-1-one] has an EC50 of 168 nM. In the case of `CCC[C@@H](CCO)Nc1nc(N)nc2cnn(Cc3ccc(C4CN(CC(C)(C)O)CCN4)cc3OC)c12` (stereo partly drawn) [Compound 209, (3S)-3-{[5-amino-1-({4-[4-(2-hydroxy-2-methylpropyl)piperazin-2-yl]-2-methoxyphenyl}methyl)-1H-pyrazolo[4,3-d]pyrimidin-7-yl]amino}hexan-1-ol], the EC50 is reported as 12.3 nM. With `CCC[C@@H](CCO)Nc1nc(N)nc2cnn(Cc3ncc(C4CCN(C5CCOC5)CC4)cc3OC)c12` (stereo partly drawn) [Compound 210, (3S)-3-{[5-amino-1-({3-methoxy-5-[1-(oxolan-3-yl)piperidin-4-yl]pyridin-2-yl}methyl)-1H-pyrazolo[4,3-d]pyrimidin-7-yl]amino}hexan-1-ol] the EC50 was 9.05 nM. `CCC[C@@H](CCO)Nc1nc(N)nc2cnn(Cc3ncc(C4CCN(C5CCN(C)CC5)CC4)cc3OC)c12` [Compound 213, (3S)-3-({5-amino-1-[(3-methoxy-5-{1′-methyl-[1,4′-bipiperidine]-4-yl}pyridin-2-yl)methyl]-1H-pyrazolo[4,3-d]pyrimidin-7-yl}amino)hexan-1-ol] was tested, and the EC50 was 56.6 nM. In the case of `CCC[C@@H](CCO)Nc1nc(N)nc2cnn(Cc3ncc(C4CCN(C5CCNCC5)CC4)cc3OC)c12` [Compound 214, (3S)-3-([5-amino-1-[(5-{[1,4′-bipiperidine]-4-yl}-3-methoxypyridin-2-yl)methyl]-1H-pyrazolo[4,3-d]pyrimidin-7-yl}amino)hexan-1-ol], the EC50 is reported as 315 nM. For `CCC[C@@H](CCO)Nc1nc(N)nc2c(C)nn(Cc3ncc(C4CCN(C5CCOCC5)CC4)cc3OC)c12` [Compound 215, (3S)-3-{[5-amino-1-({3-methoxy-5-[1-(oxan-4-yl)piperidin-4-yl]pyridin-2-yl}methyl)-3-methyl-1H-pyrazolo[4,3-d]pyrimidin-7-yl]amino}hexan-1-ol], the EC50 was 29.8 nM. `CCC[C@@H](CCO)Nc1nc(N)nc2cnn(Cc3ccc(C4CCN(C5CCOCC5)CC4)nc3)c12` [Compound 216, (3S)-3-{[5-amino-1-({6-[1-(oxan-4-yl)piperidin-4-yl]pyridin-3-yl}methyl)-1H-pyrazolo[4,3-d]pyrimidin-7-yl]amino}hexan-1-ol] showed an EC50 of 1540 nM. Work on `CCCCNc1nc(N)nc2cnn(Cc3ncc(C4CCN(Cc5ncn(C)n5)CC4)cc3OC)c12` [Compound 217, N7-butyl-1-[(3-methoxy-5-{1-[(1-methyl-1H-1,2,4-triazol-3-yl)methyl]piperidin-4-yl}pyridin-2-yl)methyl]-1H-pyrazolo[4,3-d]pyrimidine-5,7-diamine] yielded an EC50 of 80.1 nM. `CCCCNc1nc(N)nc2cnn(Cc3ncc(C4CCN(CC5CCOCC5)CC4)cc3OC)c12` [Compound 218, N7-butyl-1-[(3-methoxy-5-{1-[(oxan-4-yl)methyl]piperidin-4-yl}pyridin-2-yl)methyl]-1H-pyrazolo[4,3-d]pyrimidine-5,7-diamine] showed an EC50 of 25.9 nM. Work on `CCCCNc1nc(N)nc2cnn(Cc3cnc(C4CCN(C5CCOCC5)CC4)cc3OC)c12` [Compound 219, N7-butyl-1-({4-methoxy-6-[1-(oxan-4-yl)piperidin-4-yl]pyridin-3-yl}methyl)-1H-pyrazolo[4,3-d]pyrimidine-5,7-diamine] yielded an EC50 of 21.9 nM. `CCC[C@@H](CCO)Nc1nc(N)nc2c(C)nn(Cc3cnc(C4CCN(CC#N)CC4)cc3OC)c12` [Compound 220, 2-(4-{5-[(5-amino-7-{[(3S)-1-hydroxyhexan-3-yl]amino}-3-methyl-1H-pyrazolo[4,3-d]pyrimidin-1-yl)methyl]-4-methoxypyridin-2-yl}piperidin-1-yl)acetonitrile] was tested, and the EC50 was 436 nM. With `CCC[C@@H](CCO)Nc1nc(N)nc2c(C)nn(Cc3cnc(C4CCNCC4)cc3OC)c12` [Compound 221, (3S)-3-[(5-amino-1-{[4-methoxy-6-(piperidin-4-yl)pyridin-3-yl]methyl}-3-methyl-1H-pyrazolo[4,3-d]pyrimidin-7-yl)amino]hexan-1-ol] the EC50 was 57.1 nM. For `CCC[C@@H](CCO)Nc1nc(N)nc2c(C)nn(Cc3cnc(C4CCN(C5CCOCC5)CC4)cc3OC)c12` [Compound 222, (3S)-3-{[5-amino-1-({4-methoxy-6-[1-(oxan-4-yl)piperidin-4-yl]pyridin-3-yl}methyl)-3-methyl-1H-pyrazolo[4,3-d]pyrimidin-7-yl]amino}hexan-1-ol], the EC50 was 170 nM.

— patent publication US20230144824A1, “1H-PYRAZOLO[4,3-d]PYRIMIDINE COMPOUNDS AS TOLL-LIKE RECEPTOR 7 (TLR7) AGONISTS” (BRISTOL-MYERS SQUIBB COMPANY, priority 2020, published 2023)
